Key:
[1] = Dynamic vapor sorption (DVS); type: physicochemical; conditions: for hygroscopicity by DVS: 3 cycles
Experimental: (§1) DVS samples (5-10 mg) are analyzed using a TA Instruments Q5000 SA powerful dynamic vapor sorption analyzer. The relative humidity is started at about 50% and adjusted to between about 0-90% humidity with about a 10% increase or decrease in humidity for each step for 3 cycles. The weight of the sample is continuously monitored and recorded.

[2] = XRPD of the sample after DVS; type: physicochemical
Experimental: (§2) XRPD patterns are obtained using a Bruker D8 Advance equipped with a Cu Kα radiation source (λ=1.54 Å), a 9-position sample holder and a LYNXEYE super speed detector. Samples are placed on zero-background, silicon plate holders for analysis. One skilled in the art would recognize that the ° 20 values and the relative intensity values are generated by performing a peak search on the measured data and the d-spacing values are calculated by the instrument from the ° 20 values using Bragg's equation. One skilled in the art would further recognize that the relative intensity for the measured peaks may vary as a result of sample preparation, orientation and instrument used, for example.
as §1

[3] = XRPD after storage at about 40° C. under vacuum for about two weeks; type: physicochemical
Experimental: as §2

[4] = target: T1, PI3K-delta (Homo sapiens, UniProt O00329); conditions: Phase 2 trial, relapsed/refractory marginal zone lymphoma; cited from earlier work
T1 construct: host or cells: patients (clinical trial)
T1 sequence (O00329 whole entry): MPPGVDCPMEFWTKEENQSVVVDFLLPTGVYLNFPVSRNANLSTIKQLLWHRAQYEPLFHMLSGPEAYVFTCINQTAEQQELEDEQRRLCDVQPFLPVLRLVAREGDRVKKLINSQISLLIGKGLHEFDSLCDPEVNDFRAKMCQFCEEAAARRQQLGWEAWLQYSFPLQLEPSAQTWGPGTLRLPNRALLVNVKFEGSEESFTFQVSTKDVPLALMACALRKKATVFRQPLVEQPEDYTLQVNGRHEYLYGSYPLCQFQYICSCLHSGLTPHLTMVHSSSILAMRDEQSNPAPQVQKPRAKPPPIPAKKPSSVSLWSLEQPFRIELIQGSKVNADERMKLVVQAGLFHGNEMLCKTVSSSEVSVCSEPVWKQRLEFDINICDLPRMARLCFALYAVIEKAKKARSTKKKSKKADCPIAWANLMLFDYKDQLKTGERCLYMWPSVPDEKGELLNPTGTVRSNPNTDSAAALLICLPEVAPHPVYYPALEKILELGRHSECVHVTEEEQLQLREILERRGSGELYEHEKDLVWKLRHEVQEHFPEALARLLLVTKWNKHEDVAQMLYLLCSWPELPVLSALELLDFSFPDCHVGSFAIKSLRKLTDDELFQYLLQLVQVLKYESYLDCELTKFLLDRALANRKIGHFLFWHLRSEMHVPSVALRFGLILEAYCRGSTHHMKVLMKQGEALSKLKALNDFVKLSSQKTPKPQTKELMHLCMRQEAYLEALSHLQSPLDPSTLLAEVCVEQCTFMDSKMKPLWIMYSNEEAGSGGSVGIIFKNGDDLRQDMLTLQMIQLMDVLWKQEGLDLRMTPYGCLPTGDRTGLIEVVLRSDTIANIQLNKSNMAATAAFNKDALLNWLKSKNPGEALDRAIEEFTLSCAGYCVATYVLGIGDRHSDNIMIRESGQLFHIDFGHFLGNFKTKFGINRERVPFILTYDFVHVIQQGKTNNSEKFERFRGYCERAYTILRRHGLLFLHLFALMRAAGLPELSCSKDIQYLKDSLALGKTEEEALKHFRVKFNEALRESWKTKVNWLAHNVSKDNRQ
T1 sequence (P27986 whole entry partner): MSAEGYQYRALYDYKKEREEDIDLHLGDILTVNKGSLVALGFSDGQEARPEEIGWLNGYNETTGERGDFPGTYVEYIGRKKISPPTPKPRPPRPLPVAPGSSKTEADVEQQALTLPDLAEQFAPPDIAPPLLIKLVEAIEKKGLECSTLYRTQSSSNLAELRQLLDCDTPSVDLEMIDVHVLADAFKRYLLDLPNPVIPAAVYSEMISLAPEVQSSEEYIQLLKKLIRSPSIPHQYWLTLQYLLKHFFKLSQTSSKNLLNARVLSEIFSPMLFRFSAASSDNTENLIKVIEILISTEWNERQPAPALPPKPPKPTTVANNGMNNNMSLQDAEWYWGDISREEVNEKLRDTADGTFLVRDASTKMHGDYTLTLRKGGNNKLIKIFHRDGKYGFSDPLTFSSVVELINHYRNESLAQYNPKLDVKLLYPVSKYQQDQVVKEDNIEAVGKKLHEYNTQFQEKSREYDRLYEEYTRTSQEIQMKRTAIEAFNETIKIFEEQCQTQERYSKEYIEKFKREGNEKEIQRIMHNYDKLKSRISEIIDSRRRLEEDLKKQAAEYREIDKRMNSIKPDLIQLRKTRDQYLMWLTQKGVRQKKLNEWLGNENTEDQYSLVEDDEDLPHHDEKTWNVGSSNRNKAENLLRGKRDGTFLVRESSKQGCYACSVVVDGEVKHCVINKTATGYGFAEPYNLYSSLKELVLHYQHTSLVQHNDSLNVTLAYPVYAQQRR

SMILES	hygroscopicity by DVS [1]	weight change between about 0-90% relative humidity [1]	weight change in the sample over three cycles [1]	solid form by XRPD after DVS [2]	solid form by XRPD after storage [3]	PI3K-delta inhibition in patients [4]	tolerability in patients [4]
CC(C)Oc1ccc(-c2nn([C@@H](C)c3oc4ccc(F)cc4c(=O)c3-c3cccc(F)c3)c3ncnc(N)c23)cc1F [Example 1, amorphous umbralisib monotosylate]	hygroscopic	~4%	< 1%	still amorphous	–	–	–
CC(C)Oc1ccc(-c2nn([C@@H](C)c3oc4ccc(F)cc4c(=O)c3-c3cccc(F)c3)c3ncnc(N)c23)cc1F [Example 2, amorphous umbralisib monotosylate]	hygroscopic	~4%	~0.5%	still amorphous	still amorphous	–	–
CC(C)Oc1ccc(-c2nn([C@@H](C)c3oc4ccc(F)cc4c(=O)c3-c3cccc(F)c3)c3ncnc(N)c23)cc1F [umbralisib, (S)-2-(1-(4-amino-3-(3-fluoro-4-isopropoxyphenyl)-1H-pyrazolo[3,4-d]pyrimidin-1-yl)ethyl)-6-fluoro-3-(3-fluorophenyl)-4H-chromen-4-one]	–	–	–	–	–	effective PI3K-delta inhibition	well-tolerated

Reference: patent US20220251091A1, “AMORPHOUS UMBRALISIB MONOTOSYLATE” (Johnson Matthey Public Limited Company, priority 2019, published 2022)
